Each structure is given as a SMILES string. Where only a bound is given, the exact number is not on record here.

The experiment deals with T1, BTK (Homo sapiens, UniProt Q06187).
T1 construct: The GM01501.3 cell line endogenously expresses BTK with a HiBiT fusion tag via CRISPR knock-in at its C-terminal region; endogenous in cells; host or cells: GM01501.3 (GM01501 cells engineered by CRISPR knock-in of HiBiT at the BTK locus)
T1 sequence (Q06187 whole entry, the tested form may be a part): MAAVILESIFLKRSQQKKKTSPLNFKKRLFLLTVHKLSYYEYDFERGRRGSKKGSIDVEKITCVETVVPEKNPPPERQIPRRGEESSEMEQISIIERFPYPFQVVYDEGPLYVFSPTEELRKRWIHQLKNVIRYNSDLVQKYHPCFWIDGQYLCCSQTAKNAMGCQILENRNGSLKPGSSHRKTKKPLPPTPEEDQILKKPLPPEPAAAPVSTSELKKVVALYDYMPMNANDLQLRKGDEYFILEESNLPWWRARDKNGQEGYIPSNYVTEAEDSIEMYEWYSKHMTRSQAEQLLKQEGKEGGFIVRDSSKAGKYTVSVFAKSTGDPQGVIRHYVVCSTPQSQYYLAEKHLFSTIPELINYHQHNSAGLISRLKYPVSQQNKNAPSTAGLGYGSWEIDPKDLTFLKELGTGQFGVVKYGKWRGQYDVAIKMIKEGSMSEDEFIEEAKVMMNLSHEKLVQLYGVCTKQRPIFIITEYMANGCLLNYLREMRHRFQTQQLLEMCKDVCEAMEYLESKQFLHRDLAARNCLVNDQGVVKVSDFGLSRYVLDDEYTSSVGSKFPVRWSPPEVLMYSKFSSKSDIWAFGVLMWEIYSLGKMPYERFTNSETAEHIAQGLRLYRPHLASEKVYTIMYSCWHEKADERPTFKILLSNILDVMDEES
Briefly: BTK degradation assay using the HiBiT Method (Nano-Glo HiBiT Lytic Assay, GM01501.3 cells). To be noted: HiBiT Degradation on GM01501.3 BTK @ 6 hours. It counts as cell-based. The gist of the method: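 Degradation read-out: HiBiT luminescence after lytic reagent addition, giving DC50. Compounds dosed from 10 μM in 11 half-log steps (duplicate) onto GM01501.3 cells, whose endogenous BTK carries a C-terminal HiBiT knock-in tag; 6 h exposure, 37 °C, 5% CO2.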
(With HiBiT, luminescence reflects the tagged protein that the partner subunit can reach.)
A word on the DC50: it is the concentration giving 50% degradation. Read a low DC50 as a more potent degrader. `COc1cc(CN2CCC(c3ccc(NC4CCC(=O)NC4=O)cc3)CC2)ccc1-c1cc2c(-c3ccc(CNC(=O)c4noc(C(C)(C)C)n4)c(C)c3)ncnn2c1` (centres unmarked) [Example 21, 5-tert-butyl-N-[[4-[6-[4-[[4-[4-[(2,6-dioxo-3-piperidyl)amino]phenyl]-1-piperidyl]methyl]-2-methoxy-phenyl]pyrrolo[2,1-f][1,2,4]triazin-4-yl]-2-methyl-phenyl]methyl]-1,2,4-oxadiazole-3-carboxamide]: the DC50 was under 100 nM.

Consider `Cc1cc(-c2ncnn3cc(-c4ccc(CN5CCC(c6ccc(NC7CCC(=O)NC7=O)cc6)CC5)cc4)cc23)ccc1CNC(=O)c1ccc(C(F)(F)F)nc1` (centres unmarked) [Example 63, N-[[4-[6-[4-[[4-[4-[(2,6-dioxo-3-piperidyl)amino]phenyl]-1-piperidyl]methyl]phenyl]pyrrolo[2,1-f][1,2,4]triazin-4-yl]-2-methyl-phenyl]methyl]-6-(trifluoromethyl)pyridine-3-carboxamide], for which the DC50 is under 100 nM.

On to `Cc1cc(-c2ncnn3cc(CCN4CCC(c5ccc6c(C7CCC(=O)NC7=O)nn(C)c6c5)CC4)cc23)ccc1CNC(=O)c1noc(C(C)(C)C)n1` (centres unmarked) [Example 255, 5-(tert-butyl)-N-(4-(6-(2-(4-(3-(2,6-dioxopiperidin-3-yl)-1-methyl-1H-indazol-6-yl)piperidin-1-yl)ethyl)pyrrolo[2,1-f][1,2,4]triazin-4-yl)-2-methylbenzyl)-1,2,4-oxadiazole-3-carboxamide], for which the DC50 was under 100 nM.

The compound `CC(C)(C)OC1CN(C(=O)NCc2ccc(-c3ncnn4cc(-c5ccc(CN6CCC(c7ccc(NC8CCC(=O)NC8=O)cc7)CC6)c(F)c5)cc34)cc2F)C1` (centres unmarked) [Example 221, 3-(tert-butoxy)-N-(4-(6-(4-((4-(4-((2,6-dioxopiperidin-3-yl)amino)phenyl)piperidin-1-yl)methyl)-3-fluorophenyl)pyrrolo[2,1-f][1,2,4]triazin-4-yl)-2-fluorobenzyl)azetidine-1-carboxamide] gave a DC50 of under 100 nM.

The compound `Cc1cc(-c2ncnn3cc(-c4nccc(CN5CCC(c6ccc(C7CCC(=O)NC7=O)cc6)CC5)n4)cc23)ccc1CNC(=O)c1noc(C(C)(C)C)n1` (centres unmarked) [Example 215, 5-(tert-butyl)-N-(4-(6-(4-((4-(4-(2,6-dioxopiperidin-3-yl)phenyl)piperidin-1-yl)methyl)pyrimidin-2-yl)pyrrolo [2,1-f][1,2,4]triazin-4-yl)-2-methylbenzyl)-1,2,4-oxadiazole-3-carboxamide] returned a DC50 of under 100 nM.

`Cc1cc(-c2ncnn3cc(CCCCN4CC(c5ccc(NC6CCC(=O)NC6=O)cc5)C4)cc23)ccc1CNC(=O)c1noc(C(C)(C)C)n1` (centres unmarked) [Example 148, 5-tert-butyl-N-[[4-[6-[4-[3-[4-[(2,6-dioxo-3-piperidyl)amino]phenyl]azetidin-1-yl]butyl]pyrrolo[2,1-f][1,2,4]triazin-4-yl]-2-methyl-phenyl]methyl]-1,2,4-oxadiazole-3-carboxamide]: the DC50 was in the range of 100 to 500 nM.

Take `CC(C)(C)c1nc(C(=O)NCc2ccc(-c3ncnn4cc(-c5ccc(CN6CCC(Cc7cccc(OC8CCC(=O)NC8=O)c7)CC6)cn5)cc34)cc2F)no1` (centres unmarked) [Example 231, 5-(tert-butyl)-N-(4-(6-(5-((4-(3-((2,6-dioxopiperidin-3-yl)oxy)benzyl)piperidin-1-yl)methyl)pyridin-2-yl)pyrrolo[2,1-f][1,2,4]triazin-4-yl)-2-fluorobenzyl)-1,2,4-oxadiazole-3-carboxamide]: the DC50 fell in the range of 100 to 500 nM.

With `COc1ccc(C(=O)NCc2ccc(-c3ncnn4cc(-c5ccc(CN6CCC(c7ccc(NC8CCC(=O)NC8=O)cc7)CC6)cc5)cc34)cc2C)nc1` (centres unmarked) [Example 93, N-[[4-[6-[4-[[4-[4-[(2,6-dioxo-3-piperidyl)amino]phenyl]-1-piperidyl]methyl]phenyl]pyrrolo[2,1-f][1,2,4]triazin-4-yl]-2-methyl-phenyl]methyl]-5-methoxy-pyridine-2-carboxamide], the DC50 is under 100 nM.

In turn, `Cc1cc(-c2ncnn3cc(N4CCN(C(=O)CC5CCCCN5C(=O)c5ccc(OC6CCC(=O)NC6=O)cc5)CC4)cc23)ccc1CNC(=O)c1noc(C(C)(C)C)n1` (centres unmarked) [Example 176, 5-(tert-butyl)-N-(4-(6-(4-(2-(1-(4-((2,6-dioxopiperidin-3-yl)oxy)benzoyl)piperidin-2-yl)acetyl)piperazin-1-yl)pyrrolo[2,1-f][1,2,4]triazin-4-yl)-2-methylbenzyl)-1,2,4-oxadiazole-3-carboxamide] came in with a DC50 of 100 to 500 nM.

The compound `CC(C)(C)c1nc(C(=O)NCc2ccc(-c3ncnn4cc(-c5ccc(CN6CCOc7cc(OC8CCC(=O)NC8=O)ccc7C6)cn5)cc34)cc2F)no1` (centres unmarked) [Example 228] yielded a DC50 of 100 to 500 nM.

Regarding `Cc1cc(-c2ncnn3cc(-c4ccc(CN5CCC(c6ccc(NC7CCC(=O)NC7=O)cc6)CC5)cc4)cc23)ccc1CNC(=O)COCC(C)(C)C` (centres unmarked) [Example 70, 2-(2,2-dimethylpropoxy)-N-[[4-[6-[4-[[4-[4-[(2,6-dioxo-3-piperidyl)amino]phenyl]-1-piperidyl]methyl]phenyl]pyrrolo[2,1-f][1,2,4]triazin-4-yl]-2-methyl-phenyl]methyl]acetamide], the DC50 is under 100 nM.

Consider `Cc1cc(-c2ncnn3cc(CCN4CCC(c5ccc(OC6CCC(=O)NC6=O)cc5F)CC4)cc23)ccc1CNC(=O)c1noc(C(C)(C)C)n1` (centres unmarked) [Example 254, 5-(tert-butyl)-N-(4-(6-(2-(4-(4-((2,6-dioxopiperidin-3-yl)oxy)-2-fluorophenyl)piperidin-1-yl)ethyl)pyrrolo[2,1-f][1,2,4]triazin-4-yl)-2-methylbenzyl)-1,2,4-oxadiazole-3-carboxamide], for which the DC50 is under 100 nM.

`COc1cc(-c2ncnn3cc(-c4ccc(CN5CCC(c6ccc(C7CCC(=O)NC7=O)cc6)CC5)cc4)cc23)ccc1CNC(=O)c1noc(C(C)(C)C)n1` (centres unmarked) [Example 43, 5-tert-butyl-N-[[4-[6-[4-[[4-[4-(2,6-dioxo-3-piperidyl)phenyl]-1-piperidyl]methyl]phenyl]pyrrolo[2,1-f][1,2,4]triazin-4-yl]-2-methoxy-phenyl]methyl]-1,2,4-oxadiazole-3-carboxamide] came in with a 50% degradation concentration (DC50) of under 100 nM.

Consider `Cc1cc(-c2ncnn3cc(N4CCN(C(=O)c5ccccc5CNC(=O)c5ccc(OC6CCC(=O)NC6=O)cc5)CC4)cc23)ccc1CNC(=O)c1noc(C(C)(C)C)n1` (centres unmarked) [Example 193, 5-(tert-butyl)-N-(4-(6-(4-(2-((4-((2,6-dioxopiperidin-3-yl)oxy)benzamido)methyl)benzoyl)piperazin-1-yl)pyrrolo[2,1-f][1,2,4]triazin-4-yl)-2-methylbenzyl)-1,2,4-oxadiazole-3-carboxamide], for which the DC50 is under 100 nM.

`CC(C)(C)c1nc(C(=O)NCc2ccc(-c3ncnn4cc(-c5ccc(CN6CCC(c7ccc(NC8CCC(=O)NC8=O)cc7)CC6)cc5)cc34)cc2)no1` (centres unmarked) [Example 41, 5-tert-butyl-N-[[4-[6-[4-[[4-[4-[(2,6-dioxo-3-piperidyl)amino]phenyl]-1-piperidyl]methyl]phenyl]pyrrolo[2,1-f][1,2,4]triazin-4-yl]phenyl]methyl]-1,2,4-oxadiazole-3-carboxamide] had a DC50 of under 100 nM.

For the compound `Cc1cc(-c2ncnn3cc(-c4ccc(CCN5CCC(c6ccc(NC7CCC(=O)NC7=O)cc6)CC5)cc4)cc23)ccc1CNC(=O)c1noc(C(C)(C)C)n1` (centres unmarked) [Example 53, 5-tert-butyl-N-[[4-[6-[4-[2-[4-[4-[(2,6-dioxo-3-piperidyl)amino]phenyl]-1-piperidyl]ethyl]phenyl]pyrrolo[2,1-f][1,2,4]triazin-4-yl]-2-methyl-phenyl]methyl]-1,2,4-oxadiazole-3-carboxamide], the DC50 was under 100 nM.

`Cc1cc(-c2ncnn3cc(OCCCN4CCC(c5ccc6c(N7CCC(=O)NC7=O)nn(C)c6c5)CC4)cc23)ccc1CNC(=O)N1CC(OC(C)(C)C)C1` [Example 293, 3-(tert-butoxy)-N-(4-(6-(3-(4-(3-(2,4-dioxotetrahydropyrimidin-1(2H)-yl)-1-methyl-1H-indazol-6-yl)piperidin-1-yl)propoxy)pyrrolo[2,1-f][1,2,4]triazin-4-yl)-2-methylbenzyl)azetidine-1-carboxamide] returned a DC50 of under 100 nM.

As to `Cc1cc(-c2ncnn3cc(-c4ccc(C(=O)NCCc5ccc(NC6CCC(=O)NC6=O)cc5)cc4)cc23)ccc1CNC(=O)c1noc(C(C)(C)C)n1` (centres unmarked) [Example 198, 5-(tert-butyl)-N-(4-(6-(4-((4-((2,6-dioxopiperidin-3-yl)amino)phenethyl)carbamoyl)phenyl)pyrrolo[2,1-f] [1,2,4]triazin-4-yl)-2-methylbenzyl)-1,2,4-oxadiazole-3-carboxamide], the DC50 is under 100 nM.

In the case of `Cc1cc(-c2ncnn3cc(-c4ccc(CCN5CCC(c6ccc(C7CCC(=O)NC7=O)cc6)C(F)(F)C5)cc4)cc23)ccc1CNC(=O)c1noc(C(C)(C)C)n1` (centres unmarked) [Example 51, 5-tert-butyl-N-[[4-[6-[4-[2-[4-[4-(2,6-dioxo-3-piperidyl)phenyl]-3,3-difluoro-1-piperidyl]ethyl]phenyl]pyrrolo[2,1-f][1,2,4]triazin-4-yl]-2-methyl-phenyl]methyl]-1,2,4-oxadiazole-3-carboxamide], the DC50 was under 100 nM.

`Cc1cc(-c2ncnn3cc(CCCCN4CCC(c5ccc6c(N7CCC(=O)NC7=O)nn(C)c6c5)CC4)cc23)ccc1CNC(=O)c1cnn(C(C)(C)C)c1` [Example 281, 1-(tert-butyl)-N-(4-(6-(4-(4-(3-(2,4-dioxotetrahydropyrimidin-1(2H)-yl)-1-methyl-1H-indazol-6-yl)piperidin-1-yl)butyl)pyrrolo[2,1-f][1,2,4]triazin-4-yl)-2-methylbenzyl)-1H-pyrazole-4-carboxamide] had a half-maximal degradation concentration (DC50) of under 100 nM.

The values above are taken from US20240287076A1, “COMPOUNDS FOR TARGETING DEGRADATION OF BRUTON'S TYROSINE KINASE” (BIOGEN MA INC., priority 2021, published 2024).
